This note sets out measurements from US20260042764A1, “COMPOSITIONS AND METHODS FOR INHIBITION OF KRAS” (TheRas, Inc., priority 2022, published 2026).

SMILES strings stand for the structures. Bounds are passed on as bounds.

Experiment [1] has as its target T1, Avi-KRAS G12V (1-169) GppNHp/RAF1 RBD-3xFLAG (52-151) (Homo sapiens, UniProt P01116, G12V).
T1 construct: Avi-KRAS G12V (1-169)
Kind of experiment: Raf1-KRAS G12V-GppNHP disruption HTRF assay (Biological Example 1). In kind it is binding. Particulars: KRAS G12V, GppNHp-loaded; Table 11. The method, then:
(§1) A protein:protein interaction (PPI) Homogeneous Time Resolved Fluorescence (HTRF) assay was used to determine the effectiveness of compounds of the present disclosure in disrupting KRAS protein and effector RAF1 binding.
(§2) The assay buffer included: 50 mM Tris pH 7.5, 100 mM NaCl, 5 mM MgCl2, 0.1% BSA, 0.01% Tween, and 10% DMSO. The bead buffer included: 50 mM Tris pH 7.5, and 0.01% Tween 20. Assay volume of 20 μL was used in a 384 well plate-low volume format.
(§3) The HTRF assay employed the following protocol:
(§4) Protein mix was prepared in assay buffer, and dispensed on plates, 10 μL per well, then incubated for 1 h at room temperature, with 700 rpm shaking, Reagents mix was prepared and dispensed on plates, 10 μL per well, then incubated for 1 h at room temperature, with 700 rpm shaking.
(§5) Data was reported as percentage of activity, with DMSO as 100%. Data was plotted and analyzed using Prism 8.

The target in experiment [2] is T2, Avi-KRAS G12D (1-169) GppNHp/RAF1 RBD-3xFLAG (52-151) (Homo sapiens, UniProt P01116, G12D).
T2 construct: Avi-KRAS G12D (1-169)
T2 sequence (P01116 1-169 isoform P01116-2 G12D): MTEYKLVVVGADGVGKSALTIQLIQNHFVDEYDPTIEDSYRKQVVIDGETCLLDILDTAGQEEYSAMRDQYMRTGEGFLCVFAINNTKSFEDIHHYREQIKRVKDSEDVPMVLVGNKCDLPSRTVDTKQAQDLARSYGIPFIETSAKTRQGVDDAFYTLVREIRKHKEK
Description: Raf1-KRAS G12D-GppNHP disruption HTRF assay (Biological Example 1). In kind it is binding. Particulars: KRAS G12D, GppNHp-loaded. How it is done: as §1, §2, §3, §4, §5
On the technique in general: In TR-FRET formats the signal depends on donor and acceptor labels being close together.

Experiment [3] deals with T3, Avi-KRAS WT (1-169) GppNHp/RAF1 RBD-3xFLAG (52-151) (Homo sapiens, UniProt P01116).
T3 construct: Avi-KRAS WT (1-169)
T3 sequence (P01116 1-169 isoform P01116-2): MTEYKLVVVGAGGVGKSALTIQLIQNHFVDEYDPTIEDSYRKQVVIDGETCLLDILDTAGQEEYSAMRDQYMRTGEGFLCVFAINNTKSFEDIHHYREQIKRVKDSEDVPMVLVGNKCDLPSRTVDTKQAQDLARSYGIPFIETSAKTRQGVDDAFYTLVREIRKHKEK
Kind of experiment: Raf1-KRAS WT-GppNHP disruption HTRF assay (Biological Example 1). In kind it is binding. Particulars: KRAS WT, GppNHp-loaded; Table 11. The method, then: as §1, §2, §3, §4, §5

For the next experiment, the system named is GP2d cells (KRAS G12D). Description: Cell-based pERK HTRF assay in GP2d cell (Biological Example 2). Particulars: GP2d (KRAS G12D) cells. How it is done: A pERK assay (Perkin Elmer) was used to determine the effectiveness of compounds in disrupting KRAS G12D protein/effector signaling in cells.
On Day 1, cells (GP2d) were seeded into 96-well plates at 3×10^4 cells/well in 80 μL complete growth media (DMEM, 10% FBS).
(§6) On Day 2, cells were treated with compounds at 0.25% DMSO. The source plate was created with compounds diluted in media at 5-fold the final assay concentration. The compounds were run in a 9-point concentration curve starting at 1 μM or in a 9-point concentration curve starting at 100 nM, with a half-log dilution between concentrations. Twenty μL was transferred onto the cell plates (final volume in wells was 100 μL). Plates were harvested after 60 min incubation by aspirating media and adding kit-supplied 1x supplemented lysis buffer to all wells (50 μL per well). Plates were then placed on a plate shaker and incubated at 850 rpm for an additional 30 min.
Antibody mixture solution was prepared by diluting aliquoted d2 and Eu Cryptate antibodies 1:20 in kit supplied detection buffer, and mixing the diluted antibodies solutions (1:1 v:v).
Samples were homogenized by pipetting up and down and then transferred (16 μL of cell lysates) from the 96-well cell culture plate to two wells of the HTRF 384-well detection plate containing the antibody solution. Plates were centrifuged (524 g for 1 min) and allowed to incubate between 4 and 24 h at room temperature. Maximum signal is reached after 4 h incubation time and remains stable over a period of 24 hours. Therefore, readings can be made between 4 and 24 h of incubation. Plates were centrifuged again (524 g for Imin), then analyzed on the EnVision plate reader using the following settings: Excitation 320 nm, Bandwidth 75 nm; Emission 615 nm, Bandwidth 85 nm; Gain 100%; Flashes 100; Lag 60 μs.

In a further experiment the test system is SW620 cells (KRAS G12V). Kind of experiment: Cell-based pERK HTRF assay in SW620 cell (Biological Example 4). How it is done: A pERK assay (Perkin Elmer) was used to determine the effectiveness of compounds in disrupting KRAS G12V protein/effector signaling in cells.
On Day 1, cells (SW620) were seeded into 96-well plates at 3×10^4 cells/well in 80 μL complete growth media (RPMI, 10% FBS).
as §6, with “μM,” for “μM or in a 9-point concentration curve starting at 100 nM,”, “4 h” for “60 min”
Antibody mixture solution was prepared by diluting aliquoted d2 and Eu Cryptate antibodies 1:20 in kit supplied detection buffer and mixing the diluted antibodies solutions (1:1 v:v).
Samples were homogenized by pipetting up and down and then transferred (16 μL of cell lysates) from the 96-well cell culture plate to two wells of the HTRF 384-well detection plate containing the antibody solution. Plates were centrifuged (524 g for Imin) and allowed to incubate between 4 and 24 h at room temperature. […] Plates were centrifuged again (524 g for 1 min), then analyzed on the En Vision plate reader using the following settings: Excitation 320 nm, Bandwidth 75 nm; Emission 615 nm, Bandwidth 85 nm; Gain 100%; Flashes 100; Lag 60 μs.

Setting [4] is: SW620 (KRAS G12V) cells, pERK HTRF, class symbols.

T1 sequence (P01116 1-169 isoform P01116-2 G12V): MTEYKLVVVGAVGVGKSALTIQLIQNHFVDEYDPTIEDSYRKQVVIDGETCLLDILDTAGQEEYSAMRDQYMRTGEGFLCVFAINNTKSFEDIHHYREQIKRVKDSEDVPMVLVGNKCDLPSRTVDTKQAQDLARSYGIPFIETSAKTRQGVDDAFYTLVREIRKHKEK

By IC50 is commonly meant the midpoint of a concentration-inhibition curve. Read a low IC50 as greater potency. Turning to `CN(c1nc(OCC23CCCN2CCC3)nc2c(F)c(-c3ccc(F)c4sc(N)nc34)c(C(F)(F)F)cc12)[C@H]1C[C@H](CO)C1` (atropisomer, axis not shown) [Compound 1], the IC50 was > 10000 nM in experiment [1], 1000 to 10000 nM in experiment [2] (Table 11) and 1000 to 10000 nM in experiment [3].
As for `CN(c1nc(OCC23CCCN2CCC3)nc2c(F)c(-c3ccc(F)c4sc(N)nc34)c(C(F)(F)F)cc12)[C@H]1C[C@@H](O)C1` (atropisomer, axis not shown) [Compound 2], the IC50 in experiment [1] was in the range of 1000 to 10000 nM; in experiment [2] (Table 11), 100 to 1000 nM; in experiment [3], 100 to 1000 nM.
For `CN(c1nc(OCC23CCCN2CCC3)nc2c(F)c(-c3ccc(F)c4sc(N)nc34)c(C(F)(F)F)cc12)[C@H]1C[C@H](O)C1` (atropisomer, axis not shown) [Compound 3], the half-maximal inhibitory concentration (IC50) in experiment [1], in experiment [2] (Table 11) and in experiment [3] was 1000 to 10000 nM in each case.
In the case of `CCN(c1nc(OCC23CCCN2CCC3)nc2c(F)c(-c3ccc(F)c4sc(N)nc34)c(C(F)(F)F)cc12)[C@H]1C[C@@H](O)C1` (atropisomer, axis not shown) [Compound 7], the IC50 in experiment [1], in experiment [2] (Table 11) and in experiment [3] was 1000 to 10000 nM throughout.
For `Nc1nc2c(-c3c(C(F)(F)F)cc4c(N[C@H]5C[C@@H](O)C5)nc(OCC56CCCN5CCC6)nc4c3F)ccc(F)c2s1` (atropisomer, axis not shown) [Compound 9], the values for the IC50 in experiment [1], in experiment [2] (Table 11) and in experiment [3] were > 10000 nM, 1000 to 10000 nM and 1000 to 10000 nM, respectively.
For the compound `CN1C[C@H](F)C[C@H]1COc1nc(N(C)[C@H]2C[C@@H](O)C2)c2cc(C(F)(F)F)c(-c3ccc(F)c4sc(N)nc34)c(F)c2n1` (atropisomer, axis not shown) [Compound 12], the IC50 in experiment [1] was > 10000 nM; in experiment [2] (Table 11) it was > 10000 nM; in experiment [3] it was 1000 to 10000 nM.
For the compound `CO[C@H]1CN2CCC[C@@]2(COc2nc(N(C)[C@H]3C[C@@H](O)C3)c3cc(C(F)(F)F)c(-c4ccc(F)c5sc(N)nc45)c(F)c3n2)C1` (atropisomer, axis not shown) [Compound 13], the IC50 lay within 1000 to 10000 nM in experiment [1], 100 to 1000 nM in experiment [2] (Table 11) and 100 to 1000 nM in experiment [3].
For `CO[C@H]1CN2CCC[C@]2(COc2nc(N(C)[C@H]3C[C@@H](O)C3)c3cc(C(F)(F)F)c(-c4ccc(F)c5sc(N)nc45)c(F)c3n2)C1` (atropisomer, axis not shown) [Compound 14], the IC50 in experiment [1] is 1000 to 10000 nM; in experiment [2] (Table 11) it was 1000 to 10000 nM; in experiment [3] it was 100 to 1000 nM.
Turning to `CN(c1nc(OC[C@@]23CCCN2C[C@H](F)C3)nc2c(F)c(-c3ccc(F)c4sc(N)c(C#N)c34)c(C(F)(F)F)cc12)[C@@H]1CCN(C(=O)CC#N)C1` (atropisomer, axis not shown) [Compound 102], the IC50 in experiment [2] (Table 11) is 100 to 1000 nM; in the experiment with GP2d cells (KRAS G12D) (pERK HTRF), < 100 nM.
In the case of `CCN(c1nc(OC[C@@]23CCCN2C[C@H](F)C3)nc2c(F)c(-c3ccc(F)c4sc(N)c(C#N)c34)c(C(F)(F)F)cc12)[C@H]1C[C@H](C)N(C(=O)[C@@H](C)OC)C1` (atropisomer, axis not shown) [Compound 763], the IC50 in the experiment on SW620 cells (KRAS G12V) (setting [4]) is < 100 nM; in experiment [2] (class symbols), 100 to 1000 nM; with GP2d cells (KRAS G12D) (pERK HTRF, class symbols) it was < 100 nM.
For the compound `CN(c1nc(OCC23CCCN2CCC3)nc2c(F)c(-c3ccc(F)c4sc(N)nc34)c(C(F)(F)F)cc12)C1CC(O)C12CCCC2` (single isomer, unassigned) [Compound 11], in experiment [2] (Table 11), the IC50 was > 10000 nM.
Regarding `CN(c1nc(OCC23CCCN2CCC3)nc2c(F)c(-c3ccc(F)c4sc(N)nc34)c(C(F)(F)F)cc12)C1CC(O)C1` (stereo not drawn) [Compound 2], the IC50 with GP2d cells (KRAS G12D) (GP2d, pERK HTRF) was > 1000 nM.
On the same count and under the same terms, the figure for `CN(c1nc(OC[C@@]23CCCN2C[C@H](F)C3)nc2c(F)c(-c3ccc(F)c4sc(N)nc34)c(C(F)(F)F)cc12)C1CC(O)C1` (stereo partly drawn) [Compound 8] is 100 to 1000 nM; for `CN(c1nc(OC[C@@H]2C[C@@H](F)CN2C)nc2c(F)c(-c3ccc(F)c4sc(N)nc34)c(C(F)(F)F)cc12)C1CC(O)C1` (stereo partly drawn) [Compound 12] it is > 1000 nM; for `CO[C@H]1CN2CCC[C@@]2(COc2nc(N(C)C3CC(O)C3)c3cc(C(F)(F)F)c(-c4ccc(F)c5sc(N)nc45)c(F)c3n2)C1` (stereo partly drawn) [Compound 13] it is > 1000 nM.
Still for that read-out and setting: under `CO[C@H]1CN2CCC[C@]2(COc2nc(N(C)C3CC(O)C3)c3cc(C(F)(F)F)c(-c4ccc(F)c5sc(N)nc45)c(F)c3n2)C1` (stereo partly drawn) [Compound 14] stands > 1000 nM; under `CN(c1nc(OCC2(CN3CCOCC3)CC2)nc2c(F)c(-c3ccc(F)c4sc(N)nc34)c(C(F)(F)F)cc12)C1CC(O)C1` (stereo not drawn) [Compound 16], > 1000 nM.
The same measure, in the same setting: the figure for `CO[C@@H]1C[C@@H](COc2nc(N(C)C3CC(O)C3)c3cc(C(F)(F)F)c(-c4ccc(F)c5sc(N)nc45)c(F)c3n2)N(C)C1` (stereo partly drawn) [Compound 17] is > 1000 nM.
Consider `CCN(CCCO)c1nc(OC[C@@]23CCCN2C[C@H](F)C3)nc2c(F)c(-c3ccc(F)c4sc(N)c(C#N)c34)c(C(F)(F)F)cc12` [Compound 75], for which the IC50 in experiment [2] (Table 11) was 100 to 1000 nM; with GP2d cells (KRAS G12D) (pERK HTRF) it was < 100 nM.
`CN(c1nc(OCC2(CN3CCOCC3)CC2)nc2c(F)c(-c3ccc(F)c4sc(N)c(C#N)c34)c(C(F)(F)F)cc12)C1CC(O)C1` (stereo not drawn) [Compound 122]: in the experiment on GP2d cells (KRAS G12D) (GP2d, pERK HTRF), the IC50 is < 100 nM.
Same read-out and setting: the figure for `CN(c1nc(OC[C@@]23CCCN2C[C@H](F)C3)nc2c(F)c(-c3ccc(F)c4sc(N)c(C#N)c34)c(C(F)(F)F)cc12)C1CC(F)C1` (stereo partly drawn) [Compound 160] is < 100 nM.
For the compound `CN(c1nc(OC[C@@]23CCCN2C[C@H](F)C3)nc2c(F)c(-c3ccc(F)c4sc(N)c(C#N)c34)c(C(F)(F)F)cc12)C1(CC#N)CC(O)C1` (stereo partly drawn) [Compound 249], the IC50 is 100 to 1000 nM with SW620 cells (KRAS G12V) (SW620 (KRAS G12V) cells, pERK HTRF) and 100 to 1000 nM in the experiment on GP2d cells (KRAS G12D) (GP2d, pERK HTRF).
As for `CCN(c1nc(OC[C@@]23CCCN2C[C@H](F)C3)nc2c(F)c(-c3ccc(F)c4sc(N)c(C#N)c34)c(C(F)(F)F)cc12)[C@H]1CCN(C(=O)OC2CC(OC)C2)C1` (stereo partly drawn) [Compound 792], the IC50 was < 100 nM in the experiment on SW620 cells (KRAS G12V) (setting [4]); < 100 nM in experiment [2] (class symbols); < 100 nM with GP2d cells (KRAS G12D) (pERK HTRF, class symbols).
As to `CCN(c1nc(OC[C@@]23CCCN2C[C@H](F)C3)nc2c(F)c(-c3ccc(F)c4sc(N)c(C#N)c34)c(C(F)(F)F)cc12)C1CC(C(=O)N(C)C)C1` (stereo partly drawn) [Compound 950], the IC50 in the experiment with SW620 cells (KRAS G12V) (Homo sapiens, SW-620, SW620 (KRAS G12V) cells) was < 100 nM; with GP2d cells (KRAS G12D) (GP2d) it was < 100 nM.
